Assays:
[1] = test system: HIV-1 infected cells (MN isolate); test: Anti-syncytial assay (inhibition of HIV-1 MN syncytium formation, SupT1 target cells); format: cell-based; details: HIV-1 MN, SupT1 cells, 3 days; vs normal human serum
Description: (§1) The H9 cell line (a cutaneous T lymphoma line) infected by HIV-IIIB [ATCC CRL 8543] was used in the neutralization assay. The H9 cell line infected by HIV-MN was used in the anti-syncytial assays. SupT1 and Hut78 cells were used as the target cell lines for the anti-syncytial and neutralization assays. All cell lines were obtained from the National Institutes of Health AIDS Repository (Bethesda, Md.).
To analyze the effect of the maternal serum samples on HIV-1 fusion, SupT1 cells were used as target cells in an anti-syncytial assay. Dilutions of the different maternal serum samples were made in 96 well plates in RPMI 1640 media containing 10% fetal calf serum at final dilutions of 1:4, 1:8, 1:16, 1:32, 1:64, 1:128, 1:256 or 1:512. HIV-1 infected cells (MN isolate) were then plated in the wells at a density of approximately 10^4 cells per well. SupT1 target cells were then added at 5×10^5 /well and the number of syncytia are determined after 3 days of incubation. Inhibition of syncytium formation by a serum sample was considered significant if the dilution which yielded a 50% reduction in the number of syncytia when compared to control was greater than 1:32. The average number of syncytia in the control (normal human serum) wells at the above dilutions were: 45.5, 48.5, 44, 48, 48.5, 41.5, 42 and 45.5 respectively.

HIV-IIIB viral isolate = test: Neutralization assay (HIV-IIIB, Hut-78 cells, p24 antigen ELISA); format: cell-based, HIV-1 IIIB; parameters: key to Neutralization Activity, Dilution Resulting in ≥50% Inhibition: --: (-) indicates negative (i.e. a dilution of <1:10); details: HIV-IIIB, Hut-78 cells, p24 OD450 after 6 days; vs normal human serum
Method: as §1
In a neutralization assay, 20 μl of maternal sera samples was placed in 96 round bottom well plates at final dilutions of 1:10, 1:90 and 1:810 in RPMI. The HIV-IIIB viral isolate was diluted in RPMI to a TCID50 of 100 units/ml. Twenty μl of the virus solution was placed in each well and the plate was incubated for one hour at 4° C. Hut-78 cells were incubated with 2 μg/ml of polybrene for one hour at 37° C. in a CO2 incubator. The HUT-78 cells were washed and resuspended in fresh RPMI to a final concentration of 4×10^6 cells/ml. Ten μl of the cell suspension was added to each well and the plate was incubated for one hour in a 37° C., CO2 incubator.
Fifteen μl of the serum/cell/virus solution was aliquoted to a new plate containing 200 μl of fresh RPMI and incubated for 6 days. After 6 days, 100 μl was used to analyze for p24 antigen. The p24 capture ELISA assay kit (Coulter Corporation, Hialeah, Fla.) was used to perform the measurements.
Further, sera samples at the same dilutions as described above were tested for residual p24 core protein or antibody to insure the results were due only to viral infection.

gp120 peptides = test: Number of gp120 peptides bound by maternal sera (Examples 3, 4); format: binding, HIV-1 IIIB; details: Table 8
Method: (§2) Radioimmunoassay (RIA) and enzyme-linked immunosorbent assay (ELISA) were performed by standard methodologies [E. Engvall, Meth. Immunol., 70:419-439 (1980); S. K. Pierce et al, J. Exp. Med., 144:1254-1262 (1976)]. Peptides were dissolved in 0.05M carbonate-bicarbonate buffer (pH 9.6) at a concentration of 10 μg/ml. Fifty μl (500 ng) of the peptides were immobilized in 96 well polyvinylchloride plates (Dynatech Laboratories, Inc.) overnight at 4° C. Plates were washed and non-specific sites were blocked with PBS containing 1% BSA overnight at 4° C.
(§3) Dilutions of HIV positive maternal sera were made in blocking buffer at dilutions of 1:50 and 1:500 and incubated in peptide coated plates overnight at 4° C. Plates were washed with PBS and incubated with 75,000 cpm of ^125 I-labelled goat anti-human IgG. The antibody was iodinated by a chloramine T method [W. V. Williams et al, Proc. Natl. Acad. Sci. USA, 85:6488-6492 (1988)]. Plates were washed, dried and counted in a gamma counter to measure specific binding. Normal human serum (i.e., HIV seronegative) was used as a control.
(§4) Alternatively, ELISA assays were performed in polystyrene plates (Dynatech Laboratories, Inc) in which 0.05% Tween 20 (Sigma Chemical Co.) was included in the washing, blocking and dilution buffers. The secondary antibody used was goat […] Ig conjugated to horseradish peroxidase (HRP) (Sigma Chemical Co). The substrate used for color development was 3,3',5,5' tetramethyl-benzidine dihydrochloride (TMB) (Sigma Chemical Co). Absorbance of samples was measured in a Dynatech MR5000 (Dynatech Laboratories, Inc.) plate reader and expressed as an optical density at wavelength of 450 nm (OD450).
(§5) The results of the binding assays are represented in Tables 3, 4, 6 and 7. The following key is used for the designation of specific binding of the maternal sera samples to the peptides: The minus sign, -, is equivalent to the specific OD450 or cpm of sera sample binding to peptide divided by the specific OD450 or cpm of NHS sample binding to peptide, which value is less than 2. The plus sign, +, is equivalent to the specific OD450 or cpm of sera sample binding to peptide divided by the specific OD450 or cpm of NHS sample binding to peptide, which value is between 2 to 3. The double plus sign, ++, is equivalent to the specific OD450 or cpm of sera sample binding to peptide divided by the specific OD450 or cpm of NHS sample binding to peptide, which value is greater than 3.
(§6) Comparisons of number of peptides which bound maternal serum samples were made between the transmission group and the nontransmission group. The data was analyzed using the unpaired student's test. For the determination of differences in the binding of specific peptides between transmission and non-transmission groups, the Spearman's rank-order correlation test was performed.

gp41 peptides = test: Number of gp41 peptides bound by maternal sera (Examples 3, 4); format: binding, HIV-1 IIIB; details: Table 8
Method: as §2, §3, §4, §5, §6

| Substance | Anti-Syncytial Activity, Dilution Resulting in ≥50% Inhibition [1] | Neutralization Activity, Dilution Resulting in ≥50% Inhibition (HIV-IIIB viral isolate) | Number of gp120 Peptides Bound (+/++) (gp120 peptides) | Number of gp41 Peptides Bound (+ or ++) (gp41 peptides) |
| --- | --- | --- | --- | --- |
| HP5: gp120 peptide, amino acids 105-117, SEQ ID NO:102 | 1:128 | -- | 4 | 0 |
| HP9: gp120 peptide, amino acids 141-155, SEQ ID NO:104 (NSSSGRMIMEKGEIK) | 1:256 | 1:810 | 3 | 1 |
| HP2: gp120 peptide, amino acids 98-112, SEQ ID NO:100 (NDMVEQMHEDIISLW) | 1:32 | -- | 4 | 2 |
| 17: gp120 peptide, amino acids 267-282, SEQ ID NO:111 (EEEVVIRSVNFTDNAK) [Peptide 17] | 1:256 | 1:810 | 5 | 4 |
| HP3: gp120 peptide, amino acids 102-116, SEQ ID NO:101 (EQMHEDIISLWDQSL) | 1:256 | 1:90 | 4 | 2 |
| HP10: gp120 peptide, amino acids 157-171, SEQ ID NO:105 (CSFNISTSIRGKVQK) | 1:256 | -- | 2 | 0 |
| HP7: gp120 peptide, amino acids 107-121, SEQ ID NO:103 (DIISLWDQSLKPCVK) | 1:64 | 1:810 | 3 | 3 |
| HP1: gp120 peptide, amino acids 93-107, SEQ ID NO:99 (FNMWKNDMVEQMHED) | 1:64 | -- | 6 | 6 |
